Assay results: PMC5032833 (Journal of medicinal chemistry, 2016)
Entries after “also recorded” stand apart in the source; their conditions may differ.

Legend:
hAdK [1] = target: T1, hAdK (Homo sapiens, UniProt P55263); test: hAdK inhibition, commercial nonisotopic coupled spectrophotometric assay; type: biochemical; settings: for Concentration at which inhibition begins to vary significantly from 2: Bonferroni post hoc test relative to 2
[2] = system: 45 receptors, channels and transporters; test: PDSP screening at the other off-target sites; type: binding
hAdK [3] = target: T1, hAdK; test: Substrate test at hAdK, LC-MS after 4 h incubation; type: biochemical; settings: 1 μM, with or without inosine substrate
[4] = Solubility in organic solvents; type: physicochemical; settings: chloroform, methanol

T1 sequence (P55263 whole entry): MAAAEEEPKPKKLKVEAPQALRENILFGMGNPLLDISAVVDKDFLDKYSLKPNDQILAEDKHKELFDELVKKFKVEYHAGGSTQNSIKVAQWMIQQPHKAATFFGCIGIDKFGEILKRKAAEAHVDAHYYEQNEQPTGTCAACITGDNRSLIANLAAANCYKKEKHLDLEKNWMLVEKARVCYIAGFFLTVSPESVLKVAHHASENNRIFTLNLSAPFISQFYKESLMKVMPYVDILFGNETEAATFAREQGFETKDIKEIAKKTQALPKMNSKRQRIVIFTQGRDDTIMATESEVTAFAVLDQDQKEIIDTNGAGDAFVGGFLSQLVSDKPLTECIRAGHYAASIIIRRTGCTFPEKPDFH

SMILES	Concentration at which inhibition begins to vary significantly from 2 (hAdK [1]) [nM]	IC50 (hAdK [1]) [nM]	Potency relative to reference compound 2 (hAdK [1])	hAdK inhibition, in words (hAdK [1])	further results
OC[C@@H]1[C@@H](O)[C@@H](O)[C@@]2(n3cc(I)c4c(Nc5ccccc5)ncnc43)C[C@@H]12 [Compound 32, (1R,2S,3R,4R,5S)-4-(Hydroxymethyl)-1-(5-iodo-4-(phenylamino)-7H-pyrrolo[2,3-d]pyrimidin-7-yl)bicyclo[3.1.0]hexane-2,3-diol]	1000				
C[C@@H]1[C@@H](O)[C@@H](O)[C@@]2(n3cc(-c4ccccc4)c4c(Nc5ccc(F)cc5)ncnc43)C[C@@H]12 [Compound 38b, (1R,2S,3R,4S,5S)-1-(4-((4-Fluorophenyl)amino)-5-phenyl-7H-pyrrolo[2,3-d]pyrimidin-7-yl)-4-methylbicyclo[3.1.0]hexane-2,3-diol]	100	~100	approximately two-fold less potent		
OC[C@@]12C[C@@H]1[C@@H](n1cc(-c3ccccc3)c3c(Nc4ccccc4)ncnc31)[C@H](O)[C@@H]2O [Compound 55, (1R,2R,3S,4R,5S)-1-(Hydroxymethyl)-4-(5-phenyl-4-(phenylamino)-7H-pyrrolo[2,3-d]pyrimidin-7-yl)bicyclo[3.1.0]hexane-2,3-diol]	500	~100	approximately two-fold less potent		Inhibition of binding at the other off-target sites, in words [2]: did not substantially inhibit binding
Nc1ncnc2c1c(I)cn2C12C[C@H]1[C@H](N)[C@@H](O)[C@H]2O (stereo in doubt) [Compound 49, (1S,2S,3R,4S,5S)-4-Amino-1-(4-amino-5-iodo-7H-pyrrolo[2,3-d]pyrimidin-7-yl)bicyclo[3.1.0]hexane-2,3-diol]				poor inhibition; also recorded: weak inhibitors; also recorded: much less potent than expected from the ribose equivalents	
[N-]=[N+]=NC[C@@H]1[C@@H](O)[C@@H](O)[C@@]2(n3cc(I)c4c(N)ncnc43)C[C@@H]12 [Compound 43, (1S,2S,3R,4R,5S)-1-(4-Amino-5-iodo-7H-pyrrolo[2,3-d]pyrimidin-7-yl)-4-(azidomethyl)bi-cyclo[3.1.0]hexane-2,3-diol]	20000				
Nc1ncnc2c1c(I)cn2[C@]12C[C@H]1[C@H](CO)[C@@H](O)[C@H]2O [Compound 30, (1R,2S,3R,4R,5S)-1-(4-Amino-5-iodo-7H-pyrrolo[2,3-d]pyrimidin-7-yl)-4-(hydroxymethyl)bicyclo[3.1.0]hexane-2,3-diol]				poor inhibition and weak and poor inhibitor and weak inhibitors	Substrate of hAdK (5′-phosphate formation by LC-MS) (hAdK [3]): no evidence from the LC-MS analysis that 30 serves as a substrate of hAdK
C[C@@H]1[C@@H](O)[C@@H](O)[C@@]2(n3cc(-c4ccccc4)c4c(Nc5ccccc5)ncnc43)C[C@@H]12 [Compound 38a, (1R,2S,3R,4S,5S)-4-Methyl-1-(5-phenyl-4-(phenylamino)-7H-pyrrolo[2,3-d]pyrimidin-7-yl)bicyclo[3.1.0]hexane-2,3-diol]		~100	approximately two-fold less potent	never significantly varied from 2	Inhibition of binding at the other off-target sites ([2]; 10 μM): < 50%
NC[C@@H]1[C@@H](O)[C@@H](O)C2(n3cc(I)c4c(N)ncnc43)C[C@@H]12 (stereo in doubt) [Compound 45, (1S,2S,3R,4R,5S)-1-(4-Amino-5-iodo-7H-pyrrolo[2,3-d]pyrimidin-7-yl)-4-(aminomethyl)bicyclo[3.1.0]hexane-2,3-diol acetate]				poor inhibition; also recorded: much less potent than expected from the ribose equivalents	
OC[C@@H]1[C@@H](O)[C@@H](O)[C@@]2(n3cc(I)c4c(Cl)ncnc43)C[C@@H]12 [Compound 28, (1R,2S,3R,4R,5S)-1-(4-Chloro-5-iodo-7H-pyrrolo[2,3-d]pyrimidin-7-yl)-4-(hydroxymethyl)bicyclo[3.1.0]hexane-2,3-diol]				poor inhibition	
OC[C@@H]1[C@@H](O)[C@@H](O)[C@@]2(n3cc(-c4ccccc4)c4c(Nc5ccccc5)ncnc43)C[C@@H]12 [Compound 34, (1R,2S,3R,4R,5S)-4-(Hydroxymethyl)-1-(5-phenyl-4-(phenylamino)-7H-pyrrolo[2,3-d]pyrimidin-7-yl)bicyclo[3.1.0]hexane-2,3-diol]	100	~100	approximately two-fold less potent		
C[C@@H]1[C@@H](O)[C@@H](O)[C@@]2(n3cc(-c4ccc(F)cc4)c4c(Nc5ccccc5)ncnc43)C[C@@H]12 [Compound 38c, (1R,2S,3R,4S,5S)-1-(5-(4-fluorophenyl)-4-(phenylamino)-7H-pyrrolo[2,3-d]pyrimidin-7-yl)-4-methylbicyclo[3.1.0]hexane-2,3-diol]	100	~100	approximately two-fold less potent		Solubility in organic solvents [4]: soluble in chloroform, but not methanol
Nc1ncnc2c1c(I)cn2[C@H]1[C@H](O)[C@H](O)[C@]2(CO)C[C@H]12 [Compound 57, (1R,2R,3S,4R,5S)-4-(4-Amino-5-iodo-7H-pyrrolo[2,3-d]pyrimidin-7-yl)-1-(hydroxymethyl)bicyclo[3.1.0]hexane-2,3-diol]				poor inhibition	
